Experiments:
Type in all cases: cell-based
Aspergillus flavus = test: Agar plate disc-diffusion, antifungal inhibition zone; conditions: DMSO control zone subtracted
Method: (§1) The agar plate disc-diffusion method was applied. Sterilized filter papers (6 mm in diameter) were wetted with 10 μL of a solution of compounds 6-(6-bromo-2-oxo-2H-chromen-3-yl)-4-(3-bromophenyl)-2-ethoxynicotinonitrile 1 or 6-(6-bromo-2-oxo-2H-chromen-3-yl)-4-(3-bromophenyl)-2-methoxynicotinonitrile 2 to be tested, containing […], and the discs were allowed to air dry. The discs were then placed onto the surface of agar plates (nutrient agar for bacteria and Sabouraud's dextrose agar for fungi) seeded with the test organism. Each plate contained 15 mL of the agar medium, previously seeded with 0.2 mL of the broth culture of each organism pregrown for 18 hours. The plates were incubated at 37° C. for 48 hours, and 72 hours for fungi. The inhibition zones were measured in mm. Discs impregnated with DMSO were used as a control, and its inhibition zone was subtracted from the tested compound actual inhibition zone.
(§2) The results of the antimicrobial testing can be observed in Tables 1 and 2, below, using ciprofloxacin as a reference.

[1] = tested on: Chrysosporium keratinophilum; test: as above; conditions: DMSO control zone subtracted
Method: as §1, §2

Pseudomonas aeruginosa = test: Agar plate disc-diffusion, antibacterial inhibition zone; conditions: DMSO control zone subtracted
Method: as §1, §2

Staphylococcus aureus = test: as above; conditions: DMSO control zone subtracted
Method: as §1, §2

Escherichia coli = test: as above; conditions: DMSO control zone subtracted
Method: as §1, §2

Bacillus Cereus = test: as above; conditions: DMSO control zone subtracted
Method: as §1, §2

different microbes = test: Antimicrobial testing, overall conclusion; conditions: summary of Tables 1 and 2, bacteria and fungi
Method: as §1, §2
Their antibacterial activity was screened against gram positive bacteria namely Bacillus cereus and Staphylococcus aureus and gram-negative bacterial strains namely Pseudomonas aeruginosa and Escherichia coli, while their antifungal activity was screened against Aspergillus flavus and Chrysosporium keratinophilum.

[2] = A = concentration of comp. = 10,000 μL
[3] = B = concentration of comp. = 30,000 μL
[4] = C = concentration of comp. = 50,000 μL

SMILES	inhibition zone (Aspergillus flavus; [2]) [mm]	inhibition zone (Aspergillus flavus; [3]) [mm]	inhibition zone (Aspergillus flavus; [4]) [mm]	inhibition zone [1, 2] [mm]	inhibition zone [1, 3] [mm]	inhibition zone [1, 4] [mm]	inhibition zone (Pseudomonas aeruginosa; A = concentration of comp.) [mm]	inhibition zone (Pseudomonas aeruginosa; [3]) [mm]	inhibition zone (Pseudomonas aeruginosa; [4]) [mm]	inhibition zone (Staphylococcus aureus; [2]) [mm]	inhibition zone (Staphylococcus aureus; [3]) [mm]	inhibition zone (Staphylococcus aureus; [4]) [mm]	inhibition zone (Escherichia coli; [2]) [mm]	inhibition zone (Escherichia coli; [3]) [mm]	inhibition zone (Escherichia coli; [4]) [mm]	inhibition zone (Bacillus Cereus; A =) [mm]	inhibition zone (Bacillus Cereus; [3]) [mm]	inhibition zone (Bacillus Cereus; [4]) [mm]	antimicrobial activities (in words) (different microbes)
O=C(O)c1cn(C2CC2)c2cc(N3CCNCC3)c(F)cc2c1=O [Cip., ciprofloxacin, reference compound]	29	30	42	29	30	53	29	30	53	43	44	53	30	39	60	29	30	42	–
CCOc1nc(-c2cc3cc(Br)ccc3oc2=O)cc(-c2cccc(Br)c2)c1C#N [Compound 1, 6-(6-bromo-2-oxo-2H-chromen-3-yl)-4-(3-bromophenyl)-2-ethoxynicotinonitrile]	20	24	34	25	28	39	24	28	38	16	19	33	28	37	48	23	26	36	high antimicrobial activities
COc1nc(-c2cc3cc(Br)ccc3oc2=O)cc(-c2cccc(Br)c2)c1C#N [Compound 2, 6-(6-bromo-2-oxo-2H-chromen-3-yl)-4-(3-bromophenyl)-2-methoxynicotinonitrile]	24	27	39	24	28	42	25	32	37	15	23	29	28	35	48	27	29	37	high antimicrobial activities

Source: patent US12172985B1, “6-(6-bromo-2-oxo-2H-chromen-3-yl)-4-(3-bromophenyl)-2-alkoxynicotinonitrile as antimicrobial compounds” (KING FAISAL UNIVERSITY, priority 2023, dated 2024)
